One block for each compound: values may come before it.
Assays:
[1] = system: cellular cGAS activity in dsDNA-stimulated human whole blood; assay: Human whole blood assay (hWB IC50): IFNα2α production after dsDNA transfection; type: cell-based; details: inhibition of IFN induction in dsDNA-stimulated human whole blood
How it was run: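 Citrated blood from healthy donors preincubated 60 min at room temperature with compound (top 10 µM, ~1:5 steps, 0.1% DMSO), then transfected with dsDNA/Fugene and incubated 22 h at 37 °C. Plasma IFNα2α measured by MSD immunoassay; IC50 from 4-parameter fit of % control (stimulated vs unstimulated).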

[2] = system: cGAMP-stimulated THP1-Dual cells (pathway directly downstream of cGAS); assay: cGAMP stimulated counter cell assay: inhibition of IFN induction in cGAMP-stimulated THP1 cells (THP1(cGAMP) IC50); type: cell-based, human; details: for IC50: Homo sapiens, THP1-Dual, inhibition of IFN induction in cGAMP-stimulated THP1 cells, read-out: THP1(cGAMP) IC50 (converted); for Ratio THP1(cGAMP) IC50 / THP1(vir) IC50: selectivity for cGAS inhibition
How it was run: (§1)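 THP1-Dual cells with IRF-dependent Lucia luciferase reporter, stimulated by empty baculovirus (dsDNA delivery activating cGAS) or, for the counter assay, directly by cGAMP. 5000 cells/well, 8 concentrations from 10 μM top, 1% DMSO, 18 h at 37 °C; luminescence read, IC50 by 4-parameter logistic fit versus unstimulated low control.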

[3] = system: cellular cGAS activity in baculovirus-stimulated THP1-Dual cells (IRF dependent Lucia luciferase reporter); assay: Human cGAS cell assay: inhibition of IFN induction in virus-stimulated THP1 cells (THP1(vir) IC50); type: cell-based; details: Homo sapiens, THP1-Dual; inhibition of IFN induction in virus-stimulated THP1 cells; read-out: THP1(vir) IC50
How it was run: as §1

cGAS = cGAS (Homo sapiens (Human), UniProt Q8N884); assay: Human cGAS enzyme assay (hcGAS IC50, in vitro), cGAMP formation by RapidFire MS; type: biochemical; details: biochemical (in vitro) cGAS inhibition;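 note: enzyme activated by 45 bp dsDNA with GTP and ATP (30 µM each), 60 min compound pre-incubation then 90 min reaction, cGAMP relative to cyclic-di-GMP internal standard, 8-point dilutions up to 10 µM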
Chain of cGAS (Q8N884 whole entry): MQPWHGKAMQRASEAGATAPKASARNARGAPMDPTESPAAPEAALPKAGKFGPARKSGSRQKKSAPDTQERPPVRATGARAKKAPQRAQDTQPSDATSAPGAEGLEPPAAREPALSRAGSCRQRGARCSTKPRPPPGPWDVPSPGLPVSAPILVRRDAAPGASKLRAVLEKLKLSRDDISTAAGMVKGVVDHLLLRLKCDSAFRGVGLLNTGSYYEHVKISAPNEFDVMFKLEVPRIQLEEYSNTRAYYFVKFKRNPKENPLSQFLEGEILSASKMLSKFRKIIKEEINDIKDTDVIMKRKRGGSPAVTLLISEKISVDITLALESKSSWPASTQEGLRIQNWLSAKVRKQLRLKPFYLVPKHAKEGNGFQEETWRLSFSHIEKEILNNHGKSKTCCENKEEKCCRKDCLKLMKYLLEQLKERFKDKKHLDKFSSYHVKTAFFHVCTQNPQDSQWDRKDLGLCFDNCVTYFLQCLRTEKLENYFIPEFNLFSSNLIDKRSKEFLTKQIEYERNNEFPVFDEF

SMILES: C[C@H]1COCCN1c1cc(-c2ccncc2)cnc1O[C@H]1C[C@@H](C(=O)O)N(c2nc(C(F)(F)F)nc3c2oc2ccccc23)C1 [Example 3.01, (2S,4S)-4-({5-[(3S)-3-methylmorpholin-4-yl]-[3,4′-bipyridin]-6-yl}oxy)-1-[4-(trifluoromethyl)-8-oxa-3,5-diazatricyclo[7.4.0.0^2,7]trideca-1(9),2(7),3,5,10,12-hexaen-6-yl]pyrrolidine-2-carboxylic acid]
IC50 [1]: 1610 nM | IC50 [2]: > 16600 nM | Ratio THP1(cGAMP) IC50 / THP1(vir) IC50 [2]: >17 | IC50 [3]: 982 nM | IC50 (cGAS): 9 nM

SMILES: CNc1cc(-c2cnc(O[C@H]3C[C@@H](C(=O)O)N(c4nc(C(F)(F)F)nc5c4oc4ccccc45)C3)c(N3CCOC[C@@H]3C)c2)ccn1 [Example 3.02]
IC50 [1]: 1540 nM | IC50 [2]: 4920 nM | Ratio THP1(cGAMP) IC50 / THP1(vir) IC50 [2]: 16 | IC50 [3]: 306 nM | IC50 (cGAS): 13 nM

SMILES: COc1cc(-c2cnc(O[C@H]3C[C@@H](C(=O)O)N(c4nc(C(F)(F)F)nc5c4oc4ccccc45)C3)c(N3CCOC[C@@H]3C)c2)ccn1 [Example 3.05]
IC50 [1]: 1830 nM | IC50 [2]: 6710 nM | Ratio THP1(cGAMP) IC50 / THP1(vir) IC50 [2]: 13 | IC50 [3]: 523 nM | IC50 (cGAS): 14 nM

SMILES: C[C@H]1COCCN1c1cc(-c2cnn(C)c2)cnc1O[C@H]1C[C@@H](C(=O)O)N(c2nc(C(F)(F)F)nc3c2oc2ccccc23)C1 [Example 3.06]
IC50 [1]: 1990 nM | IC50 [2]: 21400 nM | Ratio THP1(cGAMP) IC50 / THP1(vir) IC50 [2]: 41 | IC50 [3]: 525 nM | IC50 (cGAS): 9 nM

SMILES: CNc1cccc(-c2cnc(O[C@H]3C[C@@H](C(=O)O)N(c4nc(C(F)(F)F)nc5c4oc4ccccc45)C3)c(N3CCOC4(COC4)[C@@H]3C)c2)c1 [Example 3.12]
IC50 [1]: 19 nM | IC50 [2]: 11100 nM | Ratio THP1(cGAMP) IC50 / THP1(vir) IC50 [2]: 1930 | IC50 [3]: 6 nM | IC50 (cGAS): 9 nM

Now from value to compound, other results behind:

IC50 [1]: 2120 nM | IC50 [3]: 899 nM | IC50 (cGAS): 7 nM
SMILES: C[C@H]1COCCN1c1cc(-c2ccncc2F)cnc1O[C@H]1C[C@@H](C(=O)O)N(c2nc(C(F)(F)F)nc3c2oc2ccccc23)C1 [Example 3.03]
IC50 [2]: 12800 nM | Ratio THP1(cGAMP) IC50 / THP1(vir) IC50 [2]: 14

IC50 [1]: 2420 nM | IC50 [3]: 757 nM | IC50 (cGAS): 12 nM
SMILES: C[C@H]1COCCN1c1cc(-c2ccnc(C(F)F)c2)cnc1O[C@H]1C[C@@H](C(=O)O)N(c2nc(C(F)(F)F)nc3c2oc2ccccc23)C1 [Example 3.04]
IC50 [2]: 7780 nM | Ratio THP1(cGAMP) IC50 / THP1(vir) IC50 [2]: 10

IC50 [1]: 1620 nM | IC50 [3]: 748 nM | IC50 (cGAS): 17 nM
SMILES: CCn1cc(-c2cnc(O[C@H]3C[C@@H](C(=O)O)N(c4nc(C(F)(F)F)nc5c4oc4ccccc45)C3)c(N3CCOC[C@@H]3C)c2)cn1 [Example 3.07]
IC50 [2]: 12300 nM | Ratio THP1(cGAMP) IC50 / THP1(vir) IC50 [2]: 16

IC50 [1]: 3 nM | IC50 [3]: 4 nM | IC50 (cGAS): 5 nM
SMILES: CNc1cc(-c2cnc(O[C@H]3C[C@@H](C(=O)O)N(c4nc(C(F)F)nc5c4oc4ccccc45)C3)c(N3CCOC4(COC4)[C@@H]3C)c2)ccn1 [Example 3.08]
IC50 [2]: 4790 nM | Ratio THP1(cGAMP) IC50 / THP1(vir) IC50 [2]: 1179

IC50 [1]: 8 nM | IC50 [3]: 8 nM | IC50 (cGAS): 9 nM
SMILES: CNc1cc(-c2cnc(O[C@H]3C[C@@H](C(=O)O)N(c4nc(C(F)(F)F)nc5c4oc4ccccc45)C3)c(N3CCOC4(COC4)[C@@H]3C)c2)ccn1 [Example 3.09]
IC50 [2]: 4820 nM | Ratio THP1(cGAMP) IC50 / THP1(vir) IC50 [2]: 585

IC50 [1]: 10 nM | IC50 [3]: 5 nM | IC50 (cGAS): 8 nM
SMILES: CC(=O)Nc1ccc(-c2cnc(O[C@H]3C[C@@H](C(=O)O)N(c4nc(C(F)(F)F)nc5c4oc4ccccc45)C3)c(N3CCOC4(COC4)[C@@H]3C)c2)cn1 [Example 3.10]
IC50 [2]: 7910 nM | Ratio THP1(cGAMP) IC50 / THP1(vir) IC50 [2]: 1713

IC50 [1]: 11 nM | IC50 [3]: 5 nM | IC50 (cGAS): 4 nM
SMILES: C[C@@H]1N(c2cc(-c3cccc(CO)c3)cnc2O[C@H]2C[C@@H](C(=O)O)N(c3nc(C(F)F)nc4c3oc3ccccc34)C2)CCOC12COC2 [Example 3.11]
IC50 [2]: 5290 nM | Ratio THP1(cGAMP) IC50 / THP1(vir) IC50 [2]: 1149

From patent US20240342186A1, “PYRIDINE DERIVATIVES WITH N-LINKED CYCLIC SUBSTITUENTS AS cGAS INHIBITORS” (Boehringer Ingelheim International GmbH, priority 2021, published 2024)
